How the values were obtained:
[1] = test system: phosphorylated c-KIT (Tyr703) and downstream signaling in GIST-T1 cells; experiment: Western blot of c-KIT signaling; assay type: cell-based, human
Description: Cells were harvested and lysed using RIPA buffer containing 50 mM HEPES (pH 7.4), 1% Triton X-100, 2 mM EDTA, 150 mM NaCl, 2.5 mM NaF, 5 mM Na3VO4, and protease inhibitor cocktail tablet (Roche, # 11–878-580–001). Proteins were separated and transferred to an NC membrane. The membranes were blocked using 5% skim milk in TBS-T buffer. The p-c-KIT (Tyr703, # 3073), p-AKT (Ser473, # 9271), p-ERK (Thr202/Tyr204, # 8544), ERK (# 4695), p-PLCγ (Tyr783, # 14008), p-STAT3 (Tyr705, # 4074), and PARP (# 9542) antibodies were obtained from Cell Signaling Technologies. The β-actin (# sc-47778) and STAT3 (# sc-482) antibodies were obtained from Santa Cruz Biotechnology. AKT (A18120) antibody was purchased from ABclonal. Each primary antibody was incubated overnight at 4 °C. The secondary antibody (GenDEPOT) was incubated for 1 h at room temperature. Proteins were detected using ECL substrate.

FGR = molecular target: T1, FGR (Homo sapiens, UniProt P09769); experiment: Kinase panel profiling; assay type: biochemical; conditions: 10 μM ATP
T1 construct: purchased Reaction Biology Corp
Description: (§1) Kinase panel profiling was conducted by Reaction Biology Corp. (San Diego, CA, USA). A single dose (1.0 μM) of 6r was tested against 371 recombinant human kinases in the presence of 10 μM ATP.

CK1g2 = molecular target: T2, CK1g2 (Homo sapiens, UniProt P78368); experiment: Kinase panel profiling; assay type: biochemical; conditions: 10 μM ATP
T2 construct: purchased Reaction Biology Corp
Description: as §1

EPHA3 = molecular target: T3, EPHA3 (Homo sapiens, UniProt P29320); experiment: Kinase panel profiling; assay type: biochemical; conditions: 10 μM ATP
T3 construct: purchased Reaction Biology Corp
Description: as §1

AURORA C = molecular target: T4, AURORA C (Homo sapiens, UniProt Q9UQB9); experiment: Kinase panel profiling; assay type: biochemical; conditions: 10 μM ATP
T4 construct: purchased Reaction Biology Corp
T4 sequence (Q9UQB9 whole entry): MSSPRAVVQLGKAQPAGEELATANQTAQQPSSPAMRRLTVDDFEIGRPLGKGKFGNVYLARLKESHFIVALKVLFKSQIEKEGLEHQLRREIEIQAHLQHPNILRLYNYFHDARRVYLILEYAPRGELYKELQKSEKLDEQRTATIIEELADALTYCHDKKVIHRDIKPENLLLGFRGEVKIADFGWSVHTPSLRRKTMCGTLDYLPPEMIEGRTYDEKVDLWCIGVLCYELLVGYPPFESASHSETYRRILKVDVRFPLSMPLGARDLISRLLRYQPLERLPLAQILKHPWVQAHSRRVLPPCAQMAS
Description: as §1

BMPR2 = molecular target: T5, BMPR2 (Homo sapiens, UniProt Q13873); experiment: Kinase panel profiling; assay type: biochemical; conditions: 10 μM ATP
T5 construct: purchased Reaction Biology Corp
Description: as §1

ROCK2 = molecular target: T6, ROCK2 (Homo sapiens, UniProt O75116); experiment: Kinase panel profiling; assay type: biochemical; conditions: 10 μM ATP
T6 construct: purchased Reaction Biology Corp
Description: as §1

YSK4/MAP3K19 = molecular target: T7, YSK4/MAP3K19 (Homo sapiens, UniProt Q56UN5); experiment: Kinase panel profiling; assay type: biochemical; conditions: 10 μM ATP
T7 construct: purchased Reaction Biology Corp
Description: as §1

NEK3 = molecular target: T8, NEK3 (Homo sapiens, UniProt P51956); experiment: Kinase panel profiling; assay type: biochemical; conditions: 10 μM ATP
T8 construct: purchased Reaction Biology Corp
T8 sequence (P51956 whole entry): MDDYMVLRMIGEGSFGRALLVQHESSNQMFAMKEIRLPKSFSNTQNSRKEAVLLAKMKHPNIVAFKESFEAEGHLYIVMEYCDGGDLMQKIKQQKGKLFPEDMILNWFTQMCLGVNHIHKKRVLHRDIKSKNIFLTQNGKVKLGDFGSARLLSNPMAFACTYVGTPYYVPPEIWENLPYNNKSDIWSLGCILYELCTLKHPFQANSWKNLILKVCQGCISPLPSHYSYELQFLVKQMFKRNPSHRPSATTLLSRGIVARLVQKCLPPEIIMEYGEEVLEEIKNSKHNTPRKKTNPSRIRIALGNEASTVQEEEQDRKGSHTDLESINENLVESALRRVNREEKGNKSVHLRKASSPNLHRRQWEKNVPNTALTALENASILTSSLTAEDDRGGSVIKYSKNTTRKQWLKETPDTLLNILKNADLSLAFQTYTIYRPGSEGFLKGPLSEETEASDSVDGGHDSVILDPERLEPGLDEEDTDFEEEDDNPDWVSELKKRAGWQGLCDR
Description: as §1

PKCiota = molecular target: T9, PKCiota (Homo sapiens, UniProt P41743); experiment: Kinase panel profiling; assay type: biochemical; conditions: 10 μM ATP
T9 construct: purchased Reaction Biology Corp
Description: as §1

MYO3b = molecular target: T10, MYO3b (Homo sapiens, UniProt Q8WXR4); experiment: Kinase panel profiling; assay type: biochemical; conditions: 10 μM ATP
T10 construct: purchased Reaction Biology Corp
Description: as §1

KHS/MAP4K5 = molecular target: T11, KHS/MAP4K5 (Homo sapiens, UniProt Q9Y4K4); experiment: Kinase panel profiling; assay type: biochemical; conditions: 10 μM ATP
T11 construct: purchased Reaction Biology Corp
Description: as §1

CK2a = molecular target: T12, CK2a (Homo sapiens, UniProt P68400); experiment: Kinase panel profiling; assay type: biochemical; conditions: 10 μM ATP
T12 construct: purchased Reaction Biology Corp
T12 sequence (P68400 whole entry): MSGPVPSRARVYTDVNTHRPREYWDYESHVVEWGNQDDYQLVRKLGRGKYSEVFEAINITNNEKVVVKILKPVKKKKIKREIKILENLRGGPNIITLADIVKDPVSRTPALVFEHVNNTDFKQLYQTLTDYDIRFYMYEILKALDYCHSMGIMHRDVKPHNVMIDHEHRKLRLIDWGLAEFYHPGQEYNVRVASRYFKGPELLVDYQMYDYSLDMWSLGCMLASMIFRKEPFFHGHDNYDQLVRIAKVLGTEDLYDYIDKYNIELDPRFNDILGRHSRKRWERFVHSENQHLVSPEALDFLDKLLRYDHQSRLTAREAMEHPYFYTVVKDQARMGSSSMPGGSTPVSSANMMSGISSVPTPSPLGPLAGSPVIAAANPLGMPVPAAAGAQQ
Description: as §1

COT1/MAP3K8 = molecular target: T13, COT1/MAP3K8 (Homo sapiens, UniProt P41279); experiment: Kinase panel profiling; assay type: biochemical; conditions: 10 μM ATP
T13 construct: purchased Reaction Biology Corp
Description: as §1

DAPK2 = molecular target: T14, DAPK2 (Homo sapiens, UniProt Q9UIK4); experiment: Kinase panel profiling; assay type: biochemical; conditions: 10 μM ATP
T14 construct: purchased Reaction Biology Corp
Description: as §1

NEK7 = molecular target: T15, NEK7 (Homo sapiens, UniProt Q8TDX7); experiment: Kinase panel profiling; assay type: biochemical; conditions: 10 μM ATP
T15 construct: purchased Reaction Biology Corp
Description: as §1

FYN = molecular target: T16, FYN (Homo sapiens, UniProt P06241); experiment: Kinase panel profiling; assay type: biochemical; conditions: 10 μM ATP
T16 construct: purchased Reaction Biology Corp
Description: as §1

LATS2 = molecular target: T17, LATS2 (Homo sapiens, UniProt Q9NRM7); experiment: Kinase panel profiling; assay type: biochemical; conditions: 10 μM ATP
T17 construct: purchased Reaction Biology Corp
T17 sequence (Q9NRM7 whole entry): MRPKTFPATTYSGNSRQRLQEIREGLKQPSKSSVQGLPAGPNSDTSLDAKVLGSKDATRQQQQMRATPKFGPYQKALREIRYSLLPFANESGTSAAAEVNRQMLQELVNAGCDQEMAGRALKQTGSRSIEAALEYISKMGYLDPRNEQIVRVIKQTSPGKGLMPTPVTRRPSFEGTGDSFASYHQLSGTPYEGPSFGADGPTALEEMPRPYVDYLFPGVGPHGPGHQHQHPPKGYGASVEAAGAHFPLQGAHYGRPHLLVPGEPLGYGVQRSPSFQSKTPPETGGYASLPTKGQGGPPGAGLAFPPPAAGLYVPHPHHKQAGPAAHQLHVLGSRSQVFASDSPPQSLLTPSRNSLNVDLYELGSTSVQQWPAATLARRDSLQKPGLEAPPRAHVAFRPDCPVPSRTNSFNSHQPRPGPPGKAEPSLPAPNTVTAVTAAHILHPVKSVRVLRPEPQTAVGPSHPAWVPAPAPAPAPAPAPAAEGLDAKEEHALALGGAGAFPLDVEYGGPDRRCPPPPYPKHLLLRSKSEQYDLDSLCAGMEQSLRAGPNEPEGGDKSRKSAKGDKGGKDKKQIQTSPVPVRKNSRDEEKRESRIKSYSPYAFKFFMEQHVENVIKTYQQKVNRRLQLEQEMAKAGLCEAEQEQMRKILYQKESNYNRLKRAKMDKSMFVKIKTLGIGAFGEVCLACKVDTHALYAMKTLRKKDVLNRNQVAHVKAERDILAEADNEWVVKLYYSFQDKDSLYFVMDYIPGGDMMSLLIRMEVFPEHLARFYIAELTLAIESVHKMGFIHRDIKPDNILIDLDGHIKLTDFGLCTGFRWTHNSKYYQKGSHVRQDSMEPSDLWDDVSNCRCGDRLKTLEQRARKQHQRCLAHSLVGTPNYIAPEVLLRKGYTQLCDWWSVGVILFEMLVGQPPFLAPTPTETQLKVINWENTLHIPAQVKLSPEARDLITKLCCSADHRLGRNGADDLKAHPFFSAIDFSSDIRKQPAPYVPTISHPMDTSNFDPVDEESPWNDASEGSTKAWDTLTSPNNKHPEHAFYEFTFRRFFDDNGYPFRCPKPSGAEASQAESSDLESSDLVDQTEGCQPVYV
Description: as §1

MLK3/MAP3K11 = molecular target: T18, MLK3/MAP3K11 (Homo sapiens, UniProt Q16584); experiment: Kinase panel profiling; assay type: biochemical; conditions: 10 μM ATP
T18 construct: purchased Reaction Biology Corp
T18 sequence (Q16584 whole entry): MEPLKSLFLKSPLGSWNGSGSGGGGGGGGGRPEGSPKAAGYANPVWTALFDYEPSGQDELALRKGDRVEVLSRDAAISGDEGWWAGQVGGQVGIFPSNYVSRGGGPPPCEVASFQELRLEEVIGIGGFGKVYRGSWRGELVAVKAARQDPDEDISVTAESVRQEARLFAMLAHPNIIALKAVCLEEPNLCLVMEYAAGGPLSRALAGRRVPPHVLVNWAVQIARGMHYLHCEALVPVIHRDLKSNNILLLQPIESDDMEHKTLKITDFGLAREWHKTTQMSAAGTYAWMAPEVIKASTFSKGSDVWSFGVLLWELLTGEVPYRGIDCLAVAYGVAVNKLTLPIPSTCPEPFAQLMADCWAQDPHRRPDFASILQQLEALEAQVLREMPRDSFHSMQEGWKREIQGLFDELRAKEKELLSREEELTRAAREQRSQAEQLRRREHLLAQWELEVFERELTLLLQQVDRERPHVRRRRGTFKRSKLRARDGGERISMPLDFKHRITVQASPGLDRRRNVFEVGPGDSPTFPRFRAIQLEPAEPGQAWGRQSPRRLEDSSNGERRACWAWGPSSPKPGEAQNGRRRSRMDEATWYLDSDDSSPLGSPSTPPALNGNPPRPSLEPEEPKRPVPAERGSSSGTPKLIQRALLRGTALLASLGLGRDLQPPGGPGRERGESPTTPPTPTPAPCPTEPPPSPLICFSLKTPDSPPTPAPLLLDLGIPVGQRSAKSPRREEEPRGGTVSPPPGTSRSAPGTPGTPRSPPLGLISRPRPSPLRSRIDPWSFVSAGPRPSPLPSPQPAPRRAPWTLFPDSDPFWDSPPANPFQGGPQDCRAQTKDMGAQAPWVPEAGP
Description: as §1

JNK3 = molecular target: T19, JNK3 (Homo sapiens, UniProt P53779); experiment: Kinase panel profiling; assay type: biochemical; conditions: 10 μM ATP
T19 construct: purchased Reaction Biology Corp
Description: as §1

CK1epsilon = molecular target: T20, CK1epsilon (Homo sapiens, UniProt P49674); experiment: Kinase panel profiling; assay type: biochemical; conditions: 10 μM ATP
T20 construct: purchased Reaction Biology Corp
Description: as §1

ABL2/ARG = molecular target: T21, ABL2/ARG (Homo sapiens, UniProt P42684); experiment: Kinase panel profiling; assay type: biochemical; conditions: 10 μM ATP
T21 construct: purchased Reaction Biology Corp
Description: as §1

WNK1 = molecular target: T22, WNK1 (Homo sapiens, UniProt Q9H4A3); experiment: Kinase panel profiling; assay type: biochemical; conditions: 10 μM ATP
T22 construct: purchased Reaction Biology Corp
Description: as §1

NIM1 = molecular target: T23, NIM1 (Homo sapiens, UniProt Q8IY84); experiment: Kinase panel profiling; assay type: biochemical; conditions: 10 μM ATP
T23 construct: purchased Reaction Biology Corp
Description: as §1

PKG2/PRKG2 = molecular target: T24, PKG2/PRKG2 (Homo sapiens, UniProt Q13237); experiment: Kinase panel profiling; assay type: biochemical; conditions: 10 μM ATP
T24 construct: purchased Reaction Biology Corp
T24 sequence (Q13237 whole entry): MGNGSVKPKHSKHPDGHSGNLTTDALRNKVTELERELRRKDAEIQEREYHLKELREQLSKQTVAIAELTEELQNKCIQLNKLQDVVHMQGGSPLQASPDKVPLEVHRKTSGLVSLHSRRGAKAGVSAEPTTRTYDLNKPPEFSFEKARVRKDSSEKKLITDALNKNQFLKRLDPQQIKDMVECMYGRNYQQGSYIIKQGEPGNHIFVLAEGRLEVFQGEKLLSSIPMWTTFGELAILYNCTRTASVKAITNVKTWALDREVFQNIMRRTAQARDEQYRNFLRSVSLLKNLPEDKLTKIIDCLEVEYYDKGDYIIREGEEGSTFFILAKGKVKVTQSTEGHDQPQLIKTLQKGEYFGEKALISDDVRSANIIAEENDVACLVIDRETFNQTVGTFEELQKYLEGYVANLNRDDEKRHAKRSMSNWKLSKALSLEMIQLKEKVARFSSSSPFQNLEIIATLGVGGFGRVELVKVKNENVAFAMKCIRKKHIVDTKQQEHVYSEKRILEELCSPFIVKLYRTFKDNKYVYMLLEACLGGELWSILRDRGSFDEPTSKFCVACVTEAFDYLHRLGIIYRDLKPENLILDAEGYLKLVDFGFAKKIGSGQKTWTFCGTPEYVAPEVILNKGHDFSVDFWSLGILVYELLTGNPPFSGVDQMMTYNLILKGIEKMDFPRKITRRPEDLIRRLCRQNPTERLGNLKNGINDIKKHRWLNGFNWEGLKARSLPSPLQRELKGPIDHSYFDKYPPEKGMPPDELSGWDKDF
Description: as §1

MARK1 = molecular target: T25, MARK1 (Homo sapiens, UniProt Q9P0L2); experiment: Kinase panel profiling; assay type: biochemical; conditions: 10 μM ATP
T25 construct: purchased Reaction Biology Corp
Description: as §1

EPHA5 = molecular target: T26, EPHA5 (Homo sapiens, UniProt P54756); experiment: Kinase panel profiling; assay type: biochemical; conditions: 10 μM ATP
T26 construct: purchased Reaction Biology Corp
Description: as §1

GRK1 = molecular target: T27, GRK1 (Homo sapiens, UniProt Q15835); experiment: Kinase panel profiling; assay type: biochemical; conditions: 10 μM ATP
T27 construct: purchased Reaction Biology Corp
Description: as §1

PLK2 = molecular target: T28, PLK2 (Homo sapiens, UniProt Q9NYY3); experiment: Kinase panel profiling; assay type: biochemical; conditions: 10 μM ATP
T28 construct: purchased Reaction Biology Corp
Description: as §1

FGFR1 = molecular target: T29, FGFR1 (Homo sapiens, UniProt P11362); experiment: Kinase panel profiling; assay type: biochemical; conditions: 10 μM ATP
T29 construct: purchased Reaction Biology Corp
Description: as §1

STK22D/TSSK1 = molecular target: T30, STK22D/TSSK1 (Homo sapiens, UniProt Q9BXA7); experiment: Kinase panel profiling; assay type: biochemical; conditions: 10 μM ATP
T30 construct: purchased Reaction Biology Corp
Description: as §1

CTK/MATK = molecular target: T31, CTK/MATK (Homo sapiens, UniProt P42679); experiment: Kinase panel profiling; assay type: biochemical; conditions: 10 μM ATP
T31 construct: purchased Reaction Biology Corp
Description: as §1

ABL1 = molecular target: T32, ABL1 (Homo sapiens, UniProt P00519); experiment: Kinase panel profiling; assay type: biochemical; conditions: 10 μM ATP
T32 construct: purchased Reaction Biology Corp
T32 sequence (P00519 whole entry): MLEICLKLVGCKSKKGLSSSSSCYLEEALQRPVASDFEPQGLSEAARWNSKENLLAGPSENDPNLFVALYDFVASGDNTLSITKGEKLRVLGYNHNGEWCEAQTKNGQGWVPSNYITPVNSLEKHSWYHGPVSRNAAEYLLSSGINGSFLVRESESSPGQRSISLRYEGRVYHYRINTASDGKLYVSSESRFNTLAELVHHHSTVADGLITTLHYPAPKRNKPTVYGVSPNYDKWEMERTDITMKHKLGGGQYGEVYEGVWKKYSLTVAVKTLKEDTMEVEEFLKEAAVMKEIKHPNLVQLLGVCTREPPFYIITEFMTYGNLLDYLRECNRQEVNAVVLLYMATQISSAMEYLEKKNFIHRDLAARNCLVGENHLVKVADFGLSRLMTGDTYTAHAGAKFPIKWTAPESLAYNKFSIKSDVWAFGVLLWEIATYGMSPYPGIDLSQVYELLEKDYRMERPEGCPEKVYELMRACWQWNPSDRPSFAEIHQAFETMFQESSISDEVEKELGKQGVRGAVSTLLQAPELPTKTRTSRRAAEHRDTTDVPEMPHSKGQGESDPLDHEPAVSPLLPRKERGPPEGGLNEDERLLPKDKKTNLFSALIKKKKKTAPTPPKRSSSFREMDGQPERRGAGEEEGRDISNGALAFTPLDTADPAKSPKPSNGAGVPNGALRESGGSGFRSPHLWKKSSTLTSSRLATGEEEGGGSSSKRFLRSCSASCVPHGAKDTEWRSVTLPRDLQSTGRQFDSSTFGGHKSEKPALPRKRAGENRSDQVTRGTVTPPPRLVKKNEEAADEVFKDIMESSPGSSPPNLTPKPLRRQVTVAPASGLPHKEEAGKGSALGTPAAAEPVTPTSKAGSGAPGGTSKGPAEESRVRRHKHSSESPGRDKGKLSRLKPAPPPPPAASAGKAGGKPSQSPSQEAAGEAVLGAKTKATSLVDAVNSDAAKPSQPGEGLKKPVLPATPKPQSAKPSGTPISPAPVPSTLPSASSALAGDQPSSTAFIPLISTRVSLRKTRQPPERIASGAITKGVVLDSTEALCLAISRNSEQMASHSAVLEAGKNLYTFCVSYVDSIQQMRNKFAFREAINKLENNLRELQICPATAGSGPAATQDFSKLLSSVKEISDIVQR
Description: as §1

CDK1/cyclin B = molecular target: T33, CDK1/cyclin B (Homo sapiens, UniProt P06493); experiment: Kinase panel profiling; assay type: biochemical; conditions: 10 μM ATP
T33 construct: purchased Reaction Biology Corp
Description: as §1

TRKC = molecular target: T34, TRKC (Homo sapiens, UniProt Q16288); experiment: Kinase panel profiling; assay type: biochemical; conditions: 10 μM ATP
T34 construct: purchased Reaction Biology Corp
Description: as §1

SMILES: Cc1ccc(NC(=O)c2ccc(CN3CCN(C)CC3)c(C(F)(F)F)c2)cc1-c1cnc2sc(N)nc2c1 [6r]
- levels of phosphorylated c-KIT (Tyr703) and downstream mediators p-AKT, p-ERK, p-PLCγ, p-STAT3 [1]: remarkably inhibited
- inhibition at 1 µM (FGR): 87.7%
- inhibition at 1 µM (CK1g2): 38.9%
- inhibition at 1 µM (EPHA3): 41.1%
- inhibition at 1 µM (AURORA C): 4.9%
- inhibition at 1 µM (BMPR2): 20.6%
- inhibition at 1 µM (ROCK2): 0.6%
- inhibition at 1 µM (YSK4/MAP3K19): 0%
- inhibition at 1 µM (NEK3): 0%
- inhibition at 1 µM (PKCiota): 8.6%
- inhibition at 1 µM (MYO3b): 0%
- inhibition at 1 µM (KHS/MAP4K5): 0%
- inhibition at 1 µM (CK2a): 21.7%
- inhibition at 1 µM (COT1/MAP3K8): 9.2%
- inhibition at 1 µM (DAPK2): 0.3%
- inhibition at 1 µM (NEK7): 5.4%
- inhibition at 1 µM (FYN): 89%
- inhibition at 1 µM (LATS2): 2.1%
- inhibition at 1 µM (MLK3/MAP3K11): 23.7%
- inhibition at 1 µM (JNK3): 5.1%
- inhibition at 1 µM (CK1epsilon): 24.2%
- inhibition at 1 µM (ABL2/ARG): 87.2%
- inhibition at 1 µM (WNK1): 6.9%
- inhibition at 1 µM (NIM1): 1.3%
- inhibition at 1 µM (PKG2/PRKG2): 9.1%
- inhibition at 1 µM (MARK1): 0%
- inhibition at 1 µM (EPHA5): 78.5%
- inhibition at 1 µM (GRK1): 16.7%
- inhibition at 1 µM (PLK2): 3.9%
- inhibition at 1 µM (FGFR1): 20.7%
- inhibition at 1 µM (STK22D/TSSK1): 14.9%
- inhibition at 1 µM (CTK/MATK): 8.1%
- inhibition at 1 µM (ABL1): 60.8%
- inhibition at 1 µM (CDK1/cyclin B): 0%
- inhibition at 1 µM (TRKC): 13.6%

Source: article PMC9817970 (Cancers, 2022)
